Literature values, collected in patent US8268828B2, “Inhibitors of the chemokine receptor CxCR3” (Sanofi, priority 2008, dated 2012).

Assays:
[1] = system: Collagen Induced Arthritis (CIA); details: CIA mice
[2] = system: metastatic breast cancer

| Compound | classical picture of inflammation (swollen red joints in limbs) [1] | leukocytic infiltration of joints ([1]; histologic evaluation) | reduction of the number of metastases ([2]; mouse model of metastatic breast cancer) [%] | direct effect on proliferation ([2]; tumor cells) |
| --- | --- | --- | --- | --- |
| Cc1ccc(-c2ccc3c(c2)C=C(C(=O)Nc2ccc(C[N+](C)(C)C4CCOCC4)cc2)CCC3)cc1.[Cl-] [TAK-779] | ablated | blocked |  |  |
| CCOc1ccc(-n2c([C@@H](C)N(Cc3cccnc3)C(=O)Cc3ccc(OC(F)(F)F)cc3)nc3ncccc3c2=O)cc1 [AMG-487] |  |  | 60 | no direct effect |
